Results taken from publication PMC4277420, “Assessment of [^125I]WYE-230949 as a Novel Histamine H3 Receptor Radiopharmaceutical” (PLoS ONE, 2014).
Several values for one entry are separate records, joined by “and”; a condition that tells them apart may be missing. Identical values can stand only once.

Tests used:
[1] = target: T1, rat histamine H3 receptor (Rattus norvegicus, UniProt Q9QYN8); experiment: In vitro saturation radioligand binding to rat brain homogenates
T1 construct: from tissue; host or cells: whole brain of male Sprague-Dawley rats, homogenate pellet
Experimental: Animals (male Sprague-Dawley rats; Harlan, UK) were killed by cervical dislocation. Whole brains were immediately excised and placed into ice-cold Tris-HCl buffer (Tris […], pH 7.4; EDTA 5 mM), homogenised and centrifuged at approx 40,000 g for 10 min at 4°C (Beckman J2-21M/E). The pellet was resuspended in 25 ml of buffer and centrifuged as previously, then the final pellet was resuspended in 10 ml of ice cold Tris buffer and stored at −50°C until required. Protein content was analysed using Bio-Rad reagent; absorbance was read on a spectrophotometer at 562 nm. [^125I]WYE230949 binding assays were carried out in a final incubation volume of 500 µl containing Tris-HCl buffer (Tris […], pH 7.4; EDTA 5 mM), brain homogenates (1.47 to 2.27 mg/ml of protein) and [^125I]WYE230949 (0.04–102 nM). Non-specific binding was defined in the presence of 10 µM iodophenpropit. Samples were incubated at 30°C for 30 min, then filtered rapidly through Whatman GF/B filters (pre-treated with 0.3% polyethylenimine; Aldrich, UK) using a Brandel M24R cell harvester and the filters washed with 3×4 ml ice-cold Tris buffer. Radioactivity on the filters was determined by liquid scintillation counting a minimum of 48 h after filtration. All assays were performed in triplicate. Specific binding was determined by subtracting non-specific binding from total binding at each concentration; Kd and Bmax values derived using GraphPad Prism (version 4.03), and expressed as mean ±SEM of the triplicate assays.

[2] = target: T2, histamine H3 receptor (Rattus norvegicus, UniProt Q9QYN8); experiment: Ex vivo autoradiography (target to cerebellum ratios); assay type: in vivo
T2 construct: Sections (20 µm) cut from a frozen rat brain were pre-incubated in Tris-HCl buffer; from tissue
Experimental: Animal experiments were conducted under the UK Animals (Scientific Procedures) Act 1986. This work was approved by the ethical review committee at the University of Glasgow (PPL: 60/3436) prior to the start of study. Naïve male Sprague-Dawley rats (Harlan, UK), weighing 217 to 352 g were either conscious or anaesthetised (2.5–3% isoflurane via a tracheostomy and artificial ventilation in 70/30% N2O/O2) for the duration of the experiment. Anaesthetised rats had their respiration and temperature monitored throughout. [^125I]WYE-230949 was administered via a femoral vein cannula to anaesthetised rats or via the lateral tail vein to conscious rats. The injected dose for each rat was calculated by measuring the syringe in a dose calibrator before and after [^125I]WYE-230949 administration. The radioactive and radiochemical amounts administered to individual rats ranged from 12.6 to 24.5 MBq and 0.32 to 0.70 µg/kg respectively in all in vivo studies.
Regional brain uptake was determined by ex vivo autoradiography, studies were performed in both conscious and anaesthetised rats in order to investigate the effect of anaesthesia on [^125I]WYE-230949 uptake. At either 30 or 120 min following [^125I]WYE-230949 administration rats were killed by cervical dislocation. The brains were removed, frozen in isopentane at −42°C and stored at −20°C before sectioning (20 µm) in a cryostat (Bright Instrument Company Ltd). Three sections were taken every 400 µm for the entire length of the rat brain and thaw mounted onto poly-L-lysine coated slides. Sections were dried at room temperature and apposed to X-ray film (Kodak Biomax MR-1) for approximately 2 weeks. The resultant autoradiograms were analysed using computer-based densitometry (MCID, Imaging Research, Canada). Relative optical density (ROD) measurements were obtained from 14 ROIs defined with reference to a rat brain atlas. For each brain region examined, bilateral readings were obtained in triplicate and the average reading determined. ROD values in the cerebellum were used as a measure of non-specific binding. Specific binding was calculated as ROD in ROI/ROD in cerebellum.

T1 sequence (Q9QYN8 whole entry): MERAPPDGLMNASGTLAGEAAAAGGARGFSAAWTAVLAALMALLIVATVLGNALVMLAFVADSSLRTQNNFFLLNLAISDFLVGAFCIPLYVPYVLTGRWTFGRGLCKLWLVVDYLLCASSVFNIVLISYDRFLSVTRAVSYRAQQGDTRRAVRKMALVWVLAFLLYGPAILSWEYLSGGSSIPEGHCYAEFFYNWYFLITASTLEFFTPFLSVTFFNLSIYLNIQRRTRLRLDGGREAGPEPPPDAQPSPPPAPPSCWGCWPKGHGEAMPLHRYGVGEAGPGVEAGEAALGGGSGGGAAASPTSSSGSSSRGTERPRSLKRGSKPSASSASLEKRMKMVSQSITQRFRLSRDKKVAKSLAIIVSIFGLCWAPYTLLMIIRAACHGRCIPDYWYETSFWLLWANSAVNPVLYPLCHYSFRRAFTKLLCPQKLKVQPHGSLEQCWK
T2 sequence (Q9QYN8 whole entry): as above

SMILES: O=C(c1ccc(Cn2cnc3cccc([125I])c32)cc1)N1CC[C@H](N2CCCC2)C1 [[^125I]WYE-230949]
- Non-specific binding as % of total binding ([1]; at 6.6±0.1 nM, defined with 10 µM iodophenpropit, n = 3): 39±3%
- Bmax ([1]; whole rat brain homogenates, one-site binding model, n = 8): 508.6±34.9 fmol/mg protein and 509 fmol/mg protein
- Target to cerebellum ratio ([2]; Amygdala, 30 min, anaesthetised): 1.10±0.02
- Target to cerebellum ratio ([2]; Amygdala, 30 min, conscious): 1.12±0.04
- Target to cerebellum ratio ([2]; Amygdala, 120 min, anaesthetised): 1.16±0.03
- Target to cerebellum ratio ([2]; Amygdala, 120 min, conscious): 1.26±0.03
- Target to cerebellum ratio ([2]; Anterior Cortex, 30 min, anaesthetised): 1.09±0.03
- Target to cerebellum ratio ([2]; Anterior Cortex, 30 min, conscious): 1.15 ± 0.02
- Target to cerebellum ratio ([2]; Anterior Cortex, 120 min, anaesthetised): 1.10±0.02
- Target to cerebellum ratio ([2]; Anterior Cortex, 120 min, conscious): 1.16±0.02
- Target to cerebellum ratio ([2]; Caudate Putamen, 30 min, anaesthetised): 1.13±0.03
- Target to cerebellum ratio ([2]; Caudate Putamen, 30 min, conscious): 1.17±0.03
- Target to cerebellum ratio ([2]; Caudate Putamen, 120 min, anaesthetised): 1.20±0.04
- Target to cerebellum ratio ([2]; Caudate Putamen, 120 min, conscious): 1.32±0.04
- Target to cerebellum ratio ([2]; Choroid Plexus, 30 min, anaesthetised): 1.73±0.06
- Target to cerebellum ratio ([2]; Choroid Plexus, 30 min, conscious): 2.68±0.04
- Target to cerebellum ratio ([2]; Choroid Plexus, 120 min, anaesthetised): 1.79±0.10
- Target to cerebellum ratio ([2]; Choroid Plexus, 120 min, conscious): 2.66±0.11
- Target to cerebellum ratio ([2]; Hippocampus, 30 min, anaesthetised): 1.08±0.03
- Target to cerebellum ratio ([2]; Hippocampus, 30 min, conscious): 1.06±0.02
- Target to cerebellum ratio ([2]; Hippocampus, 120 min, anaesthetised): 1.08±0.01
- Target to cerebellum ratio ([2]; Hippocampus, 120 min, conscious): 1.10±0.02
- Target to cerebellum ratio ([2]; Hypothalamus, 30 min, anaesthetised): 1.16±0.03
- Target to cerebellum ratio ([2]; Hypothalamus, 30 min, conscious): 1.13±0.03
- Target to cerebellum ratio ([2]; Hypothalamus, 120 min, anaesthetised): 1.18±0.03
- Target to cerebellum ratio ([2]; Hypothalamus, 120 min, conscious): 1.18±0.02
- Target to cerebellum ratio ([2]; Medial Cortex, 30 min, anaesthetised): 1.10±0.03
- Target to cerebellum ratio ([2]; Medial Cortex, 30 min, conscious): 1.22±0.03
- Target to cerebellum ratio ([2]; Medial Cortex, 120 min, anaesthetised): 1.12±0.02
- Target to cerebellum ratio ([2]; Medial Cortex, 120 min, conscious): 1.21±0.02
- Target to cerebellum ratio ([2]; Nucleus Accumbens (Core), 30 min, anaesthetised): 1.12±0.03
- Target to cerebellum ratio ([2]; Nucleus Accumbens (Core), 30 min, conscious): 1.15±0.03
- Target to cerebellum ratio ([2]; Nucleus Accumbens (Core), 120 min, anaesthetised): 1.24±0.04
- Target to cerebellum ratio ([2]; Nucleus Accumbens (Core), 120 min, conscious): 1.36±0.03
- Target to cerebellum ratio ([2]; Nucleus Accumbens (Shell), 30 min, anaesthetised): 1.12±0.02
- Target to cerebellum ratio ([2]; Nucleus Accumbens (Shell), 30 min, conscious): 1.17±0.06
- Target to cerebellum ratio ([2]; Nucleus Accumbens (Shell), 120 min, anaesthetised): 1.24±0.04
- Target to cerebellum ratio ([2]; Nucleus Accumbens (Shell), 120 min, conscious): 1.33±0.05
- Target to cerebellum ratio ([2]; Posterior Cortex, 30 min, anaesthetised): 1.08±0.03
- Target to cerebellum ratio ([2]; Posterior Cortex, 30 min, conscious): 1.18±0.03
- Target to cerebellum ratio ([2]; Posterior Cortex, 120 min, anaesthetised): 1.13±0.03
- Target to cerebellum ratio ([2]; Posterior Cortex, 120 min, conscious): 1.26±0.02
- Target to cerebellum ratio ([2]; Substantia Nigra, 30 min, anaesthetised): 1.19±0.03
- Target to cerebellum ratio ([2]; Substantia Nigra, 30 min, conscious): 1.10±0.02
- Target to cerebellum ratio ([2]; Substantia Nigra, 120 min, anaesthetised): 1.26±0.04
- Target to cerebellum ratio ([2]; Substantia Nigra, 120 min, conscious): 1.26±0.03
- Target to cerebellum ratio ([2]; Thalamus, 30 min, anaesthetised): 1.10±0.03
- Target to cerebellum ratio ([2]; Thalamus, 30 min, conscious): 1.11±0.02
- Target to cerebellum ratio ([2]; Thalamus, 120 min, anaesthetised): 1.09±0.02
- Target to cerebellum ratio ([2]; Thalamus, 120 min, conscious): 1.08±0.02
- ratio of specific to non-specific binding ([2]; all brain ROIs, conscious and anaesthetised rats): less than 1.4
